According to ChEMBL document CHEMBL1201862, “PubChem BioAssay data set” (2004):
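A five-concentration, 48-hour dose response in 96-well plates underlies each endpoint, interpolated linearly between surrounding concentrations. At the GI50, growth is halved.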 Calls of active or inactive are those of the source. No stated cut-off is given here; in the data, active = GI50 up to about 1.1 µM and inactive = higher.

Columns and labels:
Assay in all cases: NCI tumour cell line growth inhibition, 48 h
[1] = test system: A498
[2] = test system: HCT-116
[3] = test system: HOP-62
[4] = test system: HOP-92
[5] = test system: M14
[6] = test system: MOLT-4
[7] = test system: NCI-H226
[8] = test system: OVCAR-3
[9] = test system: OVCAR-4
[10] = test system: RPMI-8226
[11] = test system: SF-295
[12] = test system: SF-539
[13] = test system: SK-MEL-28
[14] = test system: SK-MEL-5
[15] = test system: SNB-75
[16] = test system: SR
[17] = test system: TK-10
[18] = test system: U-251
[19] = test system: UACC-62
[20] = test system: SK-MEL-2

Measured: GI50

CS/C(=N\c1ccc([N+](=O)[O-])cc1C#N)NC(=O)c1ccccc1
inactive: [1] > 100 µM | [2] > 100 µM | [3] > 100 µM | [4] 46 µM | [5] > 100 µM | [6] 54.2 µM | [7] 33.9 µM | [8] > 100 µM | [9] > 100 µM | [10] > 100 µM | [11] > 100 µM | [12] > 100 µM | [13] > 100 µM | [14] > 100 µM | [15] 28.4 µM | [16] > 100 µM | [17] > 100 µM | [18] > 100 µM | [19] > 100 µM

C=CCC1(Sc2ccccn2)Sc2ccc3ccccc3c2-c2c(ccc3ccccc23)S1
inactive: [1] > 100 µM | [2] > 100 µM | [3] > 100 µM | [4] > 100 µM | [5] > 100 µM | [6] > 100 µM | [7] > 100 µM | [8] > 100 µM | [9] > 100 µM | [11] > 100 µM | [12] > 100 µM | [13] > 100 µM | [20] > 100 µM | [14] > 100 µM | [15] 55.7 µM | [16] > 100 µM | [17] > 100 µM | [18] > 100 µM | [19] > 100 µM

N#CC1C(=O)N(c2ccccc2)NC12OC(=O)c1ccncc12 (stereo not given)
inactive: [1] > 20 µM | [2] > 20 µM | [4] > 20 µM | [5] > 20 µM | [6] > 20 µM | [7] > 20 µM | [8] > 20 µM | [9] > 20 µM | [10] > 20 µM | [11] > 20 µM | [12] > 20 µM | [13] > 20 µM | [20] > 20 µM | [14] > 20 µM | [16] > 20 µM | [18] > 20 µM | [19] > 20 µM

Fc1ccc(F)c(C2SCc3nc4ccccc4n32)c1 (stereo not given)
inactive: [1] 43.8 µM | [2] 61 µM | [3] > 100 µM | [4] 28.5 µM | [5] 72.1 µM | [6] 27.2 µM | [7] > 100 µM | [8] 54.6 µM | [9] 95.7 µM | [10] 40 µM | [11] 29.5 µM | [12] > 100 µM | [14] 20.3 µM | [15] > 100 µM | [16] 43.9 µM | [17] 34.3 µM | [18] > 100 µM | [19] 91.6 µM

c1ccc2c(c1)oc1ccc3nsnc3c12
inactive: [1] 63.4 µM | [2] > 100 µM | [4] 45.7 µM | [5] > 100 µM | [6] > 100 µM | [7] 51.6 µM | [8] > 100 µM | [9] > 100 µM | [11] > 100 µM | [12] > 100 µM | [13] > 100 µM | [20] > 100 µM | [14] > 100 µM | [15] 53.3 µM | [16] > 100 µM | [17] > 10 µM | [19] > 100 µM

C1=C(c2ccccc2)C(OC2Oc3ccccc3C=C2c2ccccc2)Oc2ccccc21 (stereo not given)
inactive: [1] > 100 µM | [2] > 100 µM | [3] > 100 µM | [4] > 100 µM | [5] > 100 µM | [6] > 100 µM | [7] > 100 µM | [8] > 100 µM | [10] 33.6 µM | [11] > 100 µM | [13] > 100 µM | [20] > 100 µM | [14] > 100 µM | [15] 24.6 µM | [16] 33.6 µM | [17] > 100 µM | [18] 15.5 µM | [19] > 100 µM

COc1ccc2c3c1O[C@H]1C(=O)C=CC4(n5[nH]c(=O)n(-c6ccccc6)c5=O)C(C2)N(C)CCC314 (stereo not given in full)
inactive: [1] > 100 µM | [2] > 100 µM | [3] > 100 µM | [4] > 100 µM | [5] > 100 µM | [6] > 100 µM | [7] > 100 µM | [8] > 100 µM | [9] > 100 µM | [10] > 100 µM | [11] > 100 µM | [12] > 100 µM | [13] > 100 µM | [20] > 100 µM | [14] > 100 µM | [16] > 100 µM | [17] > 100 µM | [18] > 100 µM | [19] > 100 µM

C[N+]1(C)C(c2ccccc2)C(=O)O[B@-]1(F)c1ccccc1 (stereo not given in full)
inactive: [1] 25.7 µM | [2] > 100 µM | [3] > 100 µM | [4] 88.1 µM | [5] > 100 µM | [6] > 100 µM | [7] > 100 µM | [8] > 100 µM | [9] > 100 µM | [10] > 100 µM | [11] > 100 µM | [13] > 100 µM | [14] > 100 µM | [15] 60.3 µM | [16] > 100 µM | [17] > 100 µM | [18] > 100 µM | [19] > 100 µM
